In publication PMC7996098, “High-Level Extracellular Expression of a New β-N-Acetylglucosaminidase in Escherichia coli for Producing GlcNAc” (Frontiers in Microbiology, 2021):

Target: T1, BlNagZ (Bacillus licheniformis, UniProt Q65P58)
T1 construct: gene ybbD; pET26b, PelB signal peptide (excised on secretion) fused to ORF amplified from its start codon; His-tag purified; E. coli BL21(DE3) supernatant
Experiment: p-nitrophenol release, absorbance […] nm
Format: biochemical
Conditions: substrate of the Km not given, taken from the standard assay; pH 5.5, 60 °C (standard assay), 50 mM phosphate; read-out: Km (μ mol/L)

T1 sequence (Q65P58 entry or part of it): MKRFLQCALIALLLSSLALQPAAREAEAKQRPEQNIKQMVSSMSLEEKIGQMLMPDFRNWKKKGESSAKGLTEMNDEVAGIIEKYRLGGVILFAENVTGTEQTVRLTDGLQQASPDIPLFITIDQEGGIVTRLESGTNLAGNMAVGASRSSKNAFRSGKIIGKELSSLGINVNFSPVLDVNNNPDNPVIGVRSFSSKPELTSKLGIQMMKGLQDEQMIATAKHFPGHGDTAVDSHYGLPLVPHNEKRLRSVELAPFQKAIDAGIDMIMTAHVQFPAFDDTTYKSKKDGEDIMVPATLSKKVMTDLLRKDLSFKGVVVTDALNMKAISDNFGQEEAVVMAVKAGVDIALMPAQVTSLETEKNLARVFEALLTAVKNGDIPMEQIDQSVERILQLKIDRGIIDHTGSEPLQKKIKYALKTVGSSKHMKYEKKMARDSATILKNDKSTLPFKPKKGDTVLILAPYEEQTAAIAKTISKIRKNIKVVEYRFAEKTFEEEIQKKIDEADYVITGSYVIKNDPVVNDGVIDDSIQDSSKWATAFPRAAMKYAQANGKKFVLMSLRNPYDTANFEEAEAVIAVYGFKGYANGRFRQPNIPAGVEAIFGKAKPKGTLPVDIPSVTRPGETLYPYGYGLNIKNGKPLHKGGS

Km: 0.000932 mol/L
Compound: CC(=O)N[C@H]1[C@H](Oc2ccc([N+](=O)[O-])cc2)O[C@H](CO)[C@@H](O)[C@@H]1O [pNP-β-D-GlcNAc]
